# Literature values in patent US9302023B2, “Aldehyde gas deodorant and method for producing same” (TOAGOSEI CO., LTD., priority 2012, dated 2016).
# Conditions: stated as known; unsupported substance
row,SMILES,Mutagenicity of the substance itself
1,NNC(=O)C(=O)NN [oxalic dihydrazide],negative
2,NNC(=O)CCCCC(=O)NN [adipic dihydrazide],negative
3,NNC(=O)NN [carbohydrazide],negative
4,NN [hydrated hydrazine],strongly positive
5,NN [hydrazine],positive
6,NNC(=O)CCC(=O)NN [succinic dihydrazide],weakly positive

# Same assay, conditions: stated as known; unsupported substance; listed as Hydrazine
row,SMILES,Mutagenicity of the substance itself
1,NN [hydrazine],highly positive
